# Laboratory results taken from patent US8642788B2, “Activators of executioner procaspases 3, 6 and 7” (The Regents of the University of California, priority 2008, dated 2014).
# Assays:
# Format in all cases: biochemical
# procaspase-7 = target: T1, procaspase-7 (Homo sapiens, UniProt P55210); test: Executioner procaspase-7 activation assay (Ac-DEVD-AFC fluorogenic substrate); details: incubation with compound for 5 h at 37° C.; 100 nM procaspase
# T1 construct: His6 (C); made in house; host or cells: E. coli BL21(DE3)RP, pET-21b
# T1 sequence (P55210 1-303): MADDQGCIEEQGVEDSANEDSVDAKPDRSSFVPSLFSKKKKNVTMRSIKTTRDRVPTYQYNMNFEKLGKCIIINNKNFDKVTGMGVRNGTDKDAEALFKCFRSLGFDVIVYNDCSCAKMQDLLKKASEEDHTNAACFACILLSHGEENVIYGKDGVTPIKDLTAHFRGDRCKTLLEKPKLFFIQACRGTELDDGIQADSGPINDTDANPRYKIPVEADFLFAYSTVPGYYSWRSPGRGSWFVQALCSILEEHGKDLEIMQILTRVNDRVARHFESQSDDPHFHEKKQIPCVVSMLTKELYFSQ
# Procedure: (§1) The executioner procaspase-3, -6 and -7 activation assay protocol involves incubating the target protein at the physiologically-relevant concentration of 100 nM with activating compounds (ranging from 100 nM to 100 uM) in a total volume of 50 μL consisting of a reaction buffer of 50 mM HEPES, pH 7.4, 50 mM KCl, 1 mM DTT and 0.01% Triton-X100 (to reduce false positive hits due to compound aggregation). The procaspase/small molecule incubations are then agitated at 37° C. and assayed at various time points by addition of the fluorogenic peptide substrate 7-Amino-4-trifluoromethylcoumarin-DEVD (Ac-DEVD-AFC) (procaspases-3, -7) or Ac-VEID-AFC (procaspase-6) to a final concentration of 25 μM and analyzed by a kinetic 30 minute assay (excitation 365 nm and emission 495 nm). The final concentration of DMSO in each well is 3% and has no effect on enzyme stability or activity. […] All components of the assay including protein, substrate and inhibitor are stored as frozen aliquots and thawed immediately prior to the assay.
# (§2) Tables 1 and 2. Procaspase activation as a result of incubation with compound for 5 h at 37° C. (+++ EC50˜0.5-10 μM; ++ EC50˜10-50 μM; + EC50˜50-200 μM; -no activation observed; ND not determined).
# procaspase-6 = target: T2, procaspase-6 (Homo sapiens, UniProt P55212); test: Executioner procaspase-6 activation assay (Ac-VEID-AFC fluorogenic substrate); details: incubation with compound for 5 h at 37° C.; 100 nM procaspase
# T2 sequence (P55212 1-293): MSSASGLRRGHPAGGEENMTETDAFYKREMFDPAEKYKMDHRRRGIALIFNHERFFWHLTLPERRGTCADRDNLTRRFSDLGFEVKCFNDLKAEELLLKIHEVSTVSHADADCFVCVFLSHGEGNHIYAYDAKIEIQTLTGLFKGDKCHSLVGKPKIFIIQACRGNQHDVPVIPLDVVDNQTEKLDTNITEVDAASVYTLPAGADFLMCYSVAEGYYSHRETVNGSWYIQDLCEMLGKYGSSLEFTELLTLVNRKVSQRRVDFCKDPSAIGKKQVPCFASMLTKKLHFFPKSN
# Procedure: as §1, §2
# procaspase-3 = target: T3, procaspase-3 (Homo sapiens, UniProt P42574); test: Executioner procaspase-3 activation assay (Ac-DEVD-AFC fluorogenic substrate); details: incubation with compound for 5 h at 37° C.; 100 nM procaspase; read-out: Procaspase Activation 3
# T3 construct: His6 (C); made in house; host or cells: E. coli BL21(DE3)RP, pET-23b
# T3 sequence (P42574 1-277): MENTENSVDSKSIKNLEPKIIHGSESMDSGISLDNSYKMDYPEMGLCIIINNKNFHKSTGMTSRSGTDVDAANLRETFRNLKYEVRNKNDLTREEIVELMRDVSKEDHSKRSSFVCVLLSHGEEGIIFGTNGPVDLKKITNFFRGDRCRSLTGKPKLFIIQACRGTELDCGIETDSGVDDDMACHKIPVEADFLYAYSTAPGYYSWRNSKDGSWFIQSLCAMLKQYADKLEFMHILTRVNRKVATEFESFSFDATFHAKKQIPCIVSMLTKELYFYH
# Procedure: The executioner procaspase-3, -6 and -7 activation assay protocol involves incubating the target protein at the physiologically-relevant concentration of 100 nM with activating compounds (ranging from 100 nM to 100 uM) in a total volume of 50 μL consisting of a reaction buffer of 50 mM HEPES, pH 7.4, 50 mM KCl, 1 mM DTT and 0.01% Triton-X100 (to reduce false positive hits due to compound aggregation). […] All components of the assay including protein, substrate and inhibitor are stored as frozen aliquots and thawed immediately prior to the assay.
SMILES,EC50 (procaspase-7) [µM],EC50 (procaspase-6) [µM],EC50 (procaspase-3) [µM]
"COc1ccc(-c2cccc(NC(=O)c3cc4cccc(O)c4oc3=O)c2)c(OC)c1 [compound 50, 8-Hydroxy-2-oxo-2H-chromene-3-carboxylic acid (2′,4′-dimethoxy-biphenyl-3-yl)-amide]",> 100,> 100,> 100
"COc1ccc(-c2cccc(NC(=O)c3cc4cccc(OC)c4oc3=O)c2)c(OC)c1 [compound 51, 8-Methoxy-2-oxo-2H-chromene-3-carboxylic acid (2′,4′-dimethoxy-biphenyl-3-yl)-amide]",> 100,> 100,> 100
"COc1ccc(-c2cccc(NC(=O)c3cc4cccc(OC(F)(F)F)c4oc3=O)c2)c(OC)c1 [compound 52, 8-Trifluoromethoxy-2-oxo-2H-chromene-3-carboxylic acid (2′,4′-dimethoxy-biphenyl-3-yl)-amide]",> 100,> 100,> 100
"COc1ccc(-c2cccc(NC(=O)c3cc4cccc(O)c4oc3=O)c2)cc1OC [compound 53, 8-Hydroxy-2-oxo-2H-chromene-3-carboxylic acid (3′,4′-Dimethoxy-biphenyl-3-yl)-amide]",0.5 to 10,> 100,> 100
"COc1ccc(-c2cccc(NC(=O)c3cc4cccc(OC)c4oc3=O)c2)cc1OC [compound 54, 8-Methoxy-2-oxo-2H-chromene-3-carboxylic acid (3′,4′-Dimethoxy-biphenyl-3-yl)-amide]",> 100,> 100,> 100
"COc1ccc(-c2cccc(NC(=O)c3cc4cccc(OC(F)(F)F)c4oc3=O)c2)cc1OC [compound 55, 8-Trifluoromethoxy-2-oxo-2H-chromene-3-carboxylic acid (3′,4′-Dimethoxy-biphenyl-3-yl)-amide]",> 100,> 100,> 100
"COc1ccc(OC)c(-c2cccc(NC(=O)c3cc4cccc(O)c4oc3=O)c2)c1 [compound 56, 8-Hydroxy-2-oxo-2H-chromene-3-carboxylic acid (2′,5′-dimethoxy-biphenyl-3-yl)-amide]",> 100,> 100,> 100
"COc1ccc(OC)c(-c2cccc(NC(=O)c3cc4cccc(OC)c4oc3=O)c2)c1 [compound 57, 8-Methoxy-2-oxo-2H-chromene-3-carboxylic acid (2′,5′-dimethoxy-biphenyl-3-yl)-amide]",> 100,> 100,> 100
"COc1ccc(OC)c(-c2cccc(NC(=O)c3cc4cccc(OC(F)(F)F)c4oc3=O)c2)c1 [compound 58, 8-Trifluoromethoxy-2-oxo-2H-chromene-3-carboxylic acid (2′,5′-dimethoxy-biphenyl-3-yl)-amide]",> 100,> 100,> 100
"O=C(Nc1cccc(-c2ccc(Oc3ccccc3)cc2)c1)c1cc2cccc(O)c2oc1=O [compound 59, 8-Hydroxy-2-oxo-2H-chromene-3-carboxylic acid (4′-phenoxy-biphenyl-3-yl)-amide]",> 100,> 100,> 100
"COc1cccc2cc(C(=O)Nc3cccc(-c4ccc(Oc5ccccc5)cc4)c3)c(=O)oc12 [compound 60, 8-Methoxy-2-oxo-2H-chromene-3-carboxylic acid (4′-phenoxy-biphenyl-3-yl)-amide]",> 100,> 100,> 100
"O=C(Nc1cccc(-c2ccc(Oc3ccccc3)cc2)c1)c1cc2cccc(OC(F)(F)F)c2oc1=O [compound 61, 8-Trifluoromethoxy-2-oxo-2H-chromene-3-carboxylic acid (4′-phenoxy-biphenyl-3-yl)-amide]",> 100,> 100,> 100
"O=C(Nc1cccc(-c2ccc3c(c2)OCO3)c1)c1cc2cccc(O)c2oc1=O [compound 62, 8-Hydroxy-2-oxo-2H-chromene-3-carboxylic acid (3-Benzo[1,3]dioxol-5-yl-phenyl)-amide]",10 to 50,> 100,> 100
